Here are results for five compounds from patent US4468350A, “KA-6643-Series antibiotics, process for producing same and medical composition containing same” (Kowa Co., Ltd., priority 1980, dated 1984).

One data set relates to dehydropeptidase. In words: Decomposition with dehydropeptidase (stability). Type of data set: in vitro ADME. Conditions: dehydropeptidase extracted from pig kidney and purified; KA-6643-A given as 1.
Another data set has as its system β-lactamase. The following applies: disclosed in Japanese Laid-open Patent Application Nos. 55-139380 and 56-43284; cited from earlier work.
Data set [1] deals with gram-positive and gram-negative bacteria. Conditions: disclosed in Japanese Laid-open Patent Application Nos. 55-139380 and 56-43284; cited from earlier work.
The subject of data set [2] is Escherichia coli NIHJ JC-2. Kind of data set: Antibacterial spectrum, minimum inhibitory concentration. Type of data set: cell-based. Conditions: NIHJJC2.
Data set [3] concerns Pseudomonas aeruginosa NCTC 10490. The data set is described as above. Type of data set: cell-based. Conditions: NCTC10490.
Data set [4] concerns Enterobacter cloacae IID 977. Described as above. Type of data set: cell-based. Conditions: IID977.
For data set [5], the system named is Staphylococcus aureus 209P JC-1. The description is as above. Type of data set: cell-based.
Data set [6] relates to Klebsiella pneumoniae PCI-602. Described as above. Type of data set: cell-based. The following applies: PCI602.
Data set [7] relates to Escherichia coli ML-1410R EC-1. In words: Antibacterial activity-improving action against β-lactam-resistant bacteria (Disc method). Type of data set: cell-based. Conditions: ML1410REC1, 18 h. On the procedure: (1) Antibacterial activity-improving action against β-lactam-resistantbacteria (Disc method):
(§1) In Penassay agar (Kyoei Pharm. Co., Ltd.) in which 200 mcg/ml of aminobenzyl penicillin (AB-PC) was inoculated germs of Escherichia coli ML-1410R EC-1 which β-lactamase-producing organisms, and 10 ml of the inoculated medium were poured on a Petri disch of 9 cm in diameter and solidified to give a test medium.
(§2) On this agar medium were placed pulp discs of 8 mm in diameter into which were respectively introduced […] of aqueous solutions of the substance KA-6643-D with a concentration of 10 mcg/ml followed by culturing at 37° C. for 18 hours and measuring the diameter of an inhibition zone around each disc. For purposes of control, the above experiment was repeated using the same type of medium in which no AB-PC was added.
The synergistic effect of the present substance and Ampicillin (aminobenzylpenicillin, AB-PC) on Escherichia coli which is resistant to Ampicillin was investigated by the disc method similarly to item (II) above with the results shown in Table 2.

Another data set has as its system Proteus vulgaris OX17. In words: Antibacterial spectrum, minimum inhibitory concentration. Type of data set: cell-based.
The nature of another data set: Solubility in solvents. Type of data set: physicochemical. The following applies: sodium salt.
For data set [8], the system named is Ampicillin-resistant Escherichia coli. Kind of data set: Synergistic effect with Ampicillin (AB-PC) on Ampicillin-resistant Escherichia coli (disc method). Type of data set: cell-based. The following applies: for Inhibitory zone: AB-PC 500 mcg/ml; for Diameter of inhibitory zone: AB-PC added. On the procedure: as §1, §2
The synergistic effect of the present substance and Ampicillin (AB-PC) on the Ampicillin-resistant Escherichia coli was investigated by the disc method similarly to the case of item (II) above, except that AB-PC was used in an amount of 500 mcg/ml.
The synergistic effect of the present substance and Ampicillin (AB-PC) on the Ampicillin-resistant Escherichia coli was investigated by the disc method similarly to the case of item (II) above.

Another data set has as its system Proteus inconstants. In words: Antibacterial spectrum, minimum inhibitory concentration. Type of data set: cell-based.

Converted amounts (≈) assume the structure as drawn. Like-named read-outs stand apart in the source and are kept apart here. Bounds are passed on as bounds.

`CC(=O)NC=C[S+]([O-])C1=C(C(=O)O)N2C(=O)C(C(C)(C)O)C2C1` (stereo not shown) [KA-6643-A]: the “rate of decomposition with dehydropeptidase” value with dehydropeptidase stood at 1. Also, in the data set with β-lactamase, the β-lactamase inhibiting activity result is reported as “β-lactamase inhibiting activity”. The “antibacterial activity against both gram-positive and gram-negative bacteria” value in [1] was “excellent antibacterial activity”.

In the case of `CC(=O)NC=C[S+]([O-])C1=C(C(=O)O)N2C(=O)C(C(C)(C)OS(=O)(=O)O)C2C1` (stereo not shown) [KA-6643-B], in the data set on β-lactamase, the β-lactamase inhibiting activity entry is on record as “β-lactamase inhibiting activity”. Besides, the “antibacterial activity against both gram-positive and gram-negative bacteria” value in data set [1] is listed as “excellent antibacterial activity”.

By MIC is commonly meant the lowest concentration that inhibits growth of the organism. A lower MIC goes with greater potency. In the case of `CC(=O)NCCSC1=C(C(=O)O)N2C(=O)[C@@H](C(C)(C)OS(=O)(=O)O)[C@H]2C1` [KA-6643-D], the MIC in data set [2] was found to be 3.1 µg/mL (≈ 7.59 µM); in data set [3], 25 µg/mL (≈ 61.2 µM); in data set [4], 6.25 µg/mL (≈ 15.3 µM); in [5], 25 µg/mL (≈ 61.2 µM); in data set [6] it was 3.1 µg/mL (≈ 7.59 µM); with Proteus vulgaris OX17, 12.5 µg/mL (≈ 30.6 µM). For the same compound, the zone of inhibition at 10 µg/mL was found to be 22 mm in data set [7] (read-out: Diameter of inhibitory zone, present compound 10 mcg/ml, AB-PC 200 mcg/ml in medium, 37° C.) and 0 mm in data set [7] (read-out: Diameter of inhibitory zone, present compound 10 mcg/ml, no AB-PC, 37° C.). Further, in the data set “Solubility in solvents” (organic solvents such as acetone, chloroform, ethyl acetate and petroleum ether), the “Solubility in organic solvents” value is “substantially insoluble”. Further, the Solubility in water entry in the data set “Solubility in solvents” (water) was “Readily soluble”.

As to `CC(=O)NCCSC1=C(C(=O)O)N2C(=O)[C@@H](C(C)(C)O)[C@H]2C1` [KA-6643-G], the MIC in data set [2] was over 25 µg/mL; in data set [3], over 25 µg/mL; in data set [4], over 25 µg/mL; in [5] it was 6.25 µg/mL (≈ 19 µM); in data set [6], over 25 µg/mL; in the data set on Proteus vulgaris OX17, over 25 µg/mL. The “rate of decomposition with dehydropeptidase” value in the data set on dehydropeptidase is on record as 2.5×10^-3. The Inhibitory zone is given as 20.5 mm in [8] (present substance 250 mcg/ml), 22.5 mm in data set [8] (present substance 500 mcg/ml) and 24.5 mm in data set [8] (present substance 1,000 mcg/ml). The “Solubility in acetone, ethyl acetate and chloroform” value in “Solubility in solvents” (acetone, ethyl acetate and chloroform) is “substantially insoluble”. The “Solubility in water and methanol” value in the data set “Solubility in solvents” was “Soluble”.

In the case of `CC(=O)NCCSC1=C(C(=O)O)N2C(=O)C(=C(C)CO)C2C1` (stereo not shown) [KA-6643-X], the MIC in data set [2] is 0.05 µg/mL (≈ 0.153 µM); in data set [3], 3.1 µg/mL (≈ 9.5 µM); in data set [4], 0.78 µg/mL (≈ 2.39 µM); in [5] it was 1.56 µg/mL (≈ 4.78 µM); in data set [6], 0.2 µg/mL (≈ 0.613 µM); in the data set with Proteus inconstants, 3.1 µg/mL (≈ 9.5 µM). This compound showed an MIC against Proteus vulgaris OX17 of 0.05 µg/mL (≈ 0.153 µM). Besides, the zone of inhibition at 25 µg/mL in data set [8] (Escherichia coli, 18 h, present substance 25 mcg/ml, No AB-PC added, read-out: Diameter of inhibitory zone) stood at 19 mm. Besides, in data set [8] (Escherichia coli, 18 h, present substance 50 mcg/ml, No AB-PC added, read-out: Diameter of inhibitory zone), the zone of inhibition at 50 µg/mL stood at 21 mm. Also, the “Diameter of inhibitory zone” value was 21.5 mm in [8] (present substance 25 mcg/ml) and 23.0 mm in data set [8] (present substance 50 mcg/ml). In addition, the “Solubility in acetone, ethyl acetate, chloroform and ether” value in the data set “Solubility in solvents” (acetone, ethyl acetate, chloroform and ether) was “substantially insoluble”. For the same compound, in the data set “Solubility in solvents”, the “Solubility in water and methanol” value is “Soluble”.
